According to patent US9897592B2, “Methods for identifying arthropod repellents and attractants, and compounds and compositions identified by such methods” (The Regents of the University of California, priority 2013, dated 2018):
Counter-ions that a name gives are not always drawn. Like-named read-outs stand apart in the source and are kept apart here.

Key:
CO2 receptor neuron [1] = assay: Amines: inhibition of CO2 receptor neuron activity; assay type: cell-based; design: % Inhibition: concentration or dose not given beside the values; settings: for Average % Inhibition: dose response
cpA neuron [2] = assay: Single-sensillum recording: activation of cpA neuron by odorants; assay type: cell-based, Aedes aegypti; settings: for Activation (spikes s^−1): A. aegypti cpA, 0.5-s pulses, odorants 10^−2 in paraffin oil or water, solvent response subtracted; for Activation (spikes s−1): cpA neuron, 20 compounds from the top 200 SVM ligand predictions, negative values = inhibition, N = 4
Method: FIG. 3b depicts representative traces and mean responses of the A. aegypti cpA neuron to 0.5-s pulses of 138 predicted compounds screened using single-sensillum recordings, in which odorants were diluted to 10^−2 in paraffin oil or water, and responses to solvent have been subtracted, n=2-6, and error bars are s.d.
FIG. 5f is a bar graph illustrating the mean responses of the A. aegypti cpA neuron to 0.5-s pulses of 22 newly predicted compounds screened as in FIG. 3b, where salmon bars correspond to odorants found in human odor, odorants were diluted to 10^−2 in paraffin oil or water, and responses to solvent have been subtracted, and n=2-5.
Adult female A. aegypti (Linnaeus 1762) (Rockefeller strain) A. gambiae sensu stricto Giles 1902 (G3 strain), or C. quinquefasciatus Say 1823 were tested 3-12 days post-emergence with single-sensillum extracellular recordings. Chemicals were obtained from Sigma-Aldrich at the highest purity (typically >99%) and were dissolved in paraffin oil or water. […] Response to clean beads was subtracted from the results reported. Only sensilla with cpA activity of <20 spikes s^−1 to negative control were considered for analysis.
(§1) CpA-off and sham treated mosquitoes were pre-treated for 3 min in an upended 1 L glass dish in which 100 μl of fresh butyryl chloride (1%) or paraffin oil was allowed to vaporize for 10-20 min. The odor delivery system for different screens is shown in FIG. 7b; solvent responses during the same recording session were subtracted. Inhibition screen was tested. For the ultra-prolonged activator the 3-s stimulus was delivered from a 10 ml disposable pipette using a CS-55 stimulus controller (Syntech), CO2 was delivered, and responses to subsequent odor stimuli were calculated by subtracting baseline activity 1 s prior to each stimulus. When responses to repeated pulses of cyclopentanone and CO2 were compared, baseline activity between seconds 5 and 6 following each stimulus was subtracted. Spike counting was done manually or with Igor Pro6.2 (Wavemetrics) with the Neuromatic v2.00 macro (by Jason Rothman), and peak-to-peak spike amplitudes for FIG. 8 were analysed in Clampfit 10.3 (Molecular Devices).
From the large list of cpA receptor ligands predicted from Example 3 above, 138 compounds were selected based on desirable criteria for application such as smell, presence in natural sources, human safety profile, and cost to procure. These compounds were tested individually using single-sensillum electrophysiology on the cp sensillum of female A. aegypti, according to the procedure described in Example 1 above.

cpA neuron [3] = assay: Inhibition screen: odorant overlaid on 0.15% CO2 stimulus, cpA response; assay type: cell-based, Aedes aegypti
Method: Percent inhibition was calculated by comparing mean odorant overlay responses to mean solvent overlay responses, and error bars are s.d.
as §1

CO2 receptor neuron [4] = assay: Activity of CO2 receptor neuron during spermidine and spermine stimulus windows; assay type: cell-based; settings: CO2 receptor neuron activity during stimulus window
Method: The polyamines were diluted 0.001 to 10% in paraffin oil (PO). Also shown in Table 7 are the activity values of the CO2 receptor neuron during the spermidine and spermine stimulus windows (error bars=s.e.m.).

[5] = inhibition of CO2 receptor neuron activity by amines

Compound	Activation (spikes s^−1) (cpA neuron [2])	also measured
NCCCNCCCCNCCCN		% Inhibition (CO2 receptor neuron [1]): 94.81%
CN1CCCC1 [1-methylpyrrolidine]		% Inhibition (CO2 receptor neuron [1]; [5]): 100%
CCCc1ccc(O)cc1 [4-propylphenol]	−9.0 spikes s^−1	
CCCc1ccncc1 [4-propylpyridine]	34.0 spikes s^−1	
c1cnc2c(n1)CCCC2 [5,6,7,8-tetrahydroquinoxaline]	−5.5 spikes s^−1	
C=Cc1scnc1C [5-ethenyl-4-methyl-1,3-thiazole]	50.5 spikes s^−1	
CC1=CCC(=O)O1 [5-methyl-3H-furan-2-one]	56.0 spikes s^−1	
Cc1cc(O)cc(O)c1 [5-methylbenzene-1,3-diol]	0.5 spikes s^−1	
CC1CCC(=O)O1 (stereo not shown) [5-methyloxolan-2-one]	10.0 spikes s^−1	
OCCCCCc1ccccc1 [5-phenylpentan-1-ol]	−3.0 spikes s^−1	
CCCCCCC1CCCC(=O)O1 (stereo not shown) [6-hexyloxan-2-one]	1.5 spikes s^−1	
Cc1ccc2ncccc2c1 [6-methylquinoline]	9.5 spikes s^−1	
CC(C)=CCC/C(C)=C/C(=O)O [(2E)-3,7-dimethylocta-2,6-dienoic acid]	3.0 spikes s^−1	
CC(C)[C@H](N)C(=O)O [(2S)-2-amino-3-methylbutanoic acid]	3.5 spikes s^−1	
O=C(O)[C@@H]1CCCN1 [(2S)-pyrrolidine-2-carboxylic acid]	3.5 spikes s^−1	
C/C=C(\C)C(=O)O [(E)-2-methylbut-2-enoic acid]	2.5 spikes s^−1	
C/C=C/C(=O)O [(E)-but-2-enoic acid]	−1.5 spikes s^−1	
CCC/C=C/CO [(E)-hex-2-en-1-ol]	31.0 spikes s^−1	
CC/C=C/C=O [(E)-pent-2-enal]	−5.0 spikes s^−1	
CC/C=C\CCO [(Z)-hex-3-en-1-ol]	2.5 spikes s^−1	
CCCCCC/C=C\CO [(Z)-non-2-en-1-ol]	−1.5 spikes s^−1	
CC/C=C\CCCCCO [(Z)-non-6-en-1-ol]	2.0 spikes s^−1	
NCCCCNCCCN [N-(3-aminopropyl)-1,4-butanediamine]		% Inhibition (CO2 receptor neuron [1]; [5]): 92.25%
CNC [N-methylmethanamine]		% Inhibition (CO2 receptor neuron [1]): 100%
c1ccsc1 [Thiophene]	116.6 spikes s^−1	

Compound	Activation (spikes s^−1) (cpA neuron [2])	also measured
CC(C)=CCC/C(C)=C/COC=O [[(2E)-3,7-dimethylocta-2,6-dienyl] formate]	−2.5 spikes s^−1	
O=COC/C=C/c1ccccc1 [[(E)-3-phenylprop-2-enyl] formate]	3.0 spikes s^−1	
CC(=O)CC(=O)OCc1ccccc1 [benzyl 3-oxobutanoate]	−1.5 spikes s^−1	
O=COCc1ccccc1 [benzyl formate]	8.0 spikes s^−1	
CCC(C)O (stereo not shown) [butan-2-ol]		Activation (spikes s−1) (cpA neuron [2]): 63.8 spikes s−1
CC(S)C(C)S (stereo not shown) [butane-2,3-dithiol]	25.0 spikes s^−1	
O=C1CCCC(=O)C1 [cyclohexane-1,3-dione]	1.5 spikes s^−1	
OC1CCCCC1 [cyclohexanol]	59.0 spikes s^−1	
C1CCCC1 [cyclopentane]		Activation (spikes s−1) (cpA neuron [2]): 41.8 spikes s−1
OC1CCCC1 [cyclopentanol]		Activation (spikes s−1) (cpA neuron [2]): 49.8 spikes s−1
OCC1CCCC1 [cyclopentylmethanol]	47.5 spikes s^−1	
COC(=O)OC [dimethyl carbonate]	73.6 spikes s^−1	
C/C=C/C(=O)OCC [ethyl (E)-but-2-enoate]	22.0 spikes s^−1	
CCOC(C)=O [ethyl acetate]	62.4 spikes s^−1	
CCOC=O [ethyl formate]	34.5 spikes s^−1	
O=Cc1ccoc1 [furan-3-carbaldehyde]	85.0 spikes s^−1	
CCCC(O)CCC [heptan-4-ol]	−3.0 spikes s^−1	
C=CCCC(C)=O [hex-5-en-2-one]	63.4 spikes s^−1	
CCCCCCN [hexan-1-amine]		% Inhibition (CO2 receptor neuron [1]; [5]): 86.61%
COCc1ccccc1 [methoxymethylbenzene]	12.0 spikes s^−1	
C=C(C)C(=O)OC [methyl 2-methylprop-2-enoate]	45.0 spikes s^−1	
COC(=O)C(C)C [methyl 2-methylpropanoate]	49.4 spikes s^−1	
COC(=O)C(C)=O [methyl 2-oxopropanoate]		fold lower concentration for comparable inhibition vs previously reported inhibitors such as 1-hexanol (cpA neuron [3]): ~10 times; inhibition of cpA activity (cpA neuron [3]; overlaid on 0.15% CO2): strongly inhibited
COC(C)=O [methyl acetate]	−50.5 spikes s^−1	
CCCC(=O)OC [methyl butanoate]	44.5 spikes s^−1	

Compound	Activation (spikes s^−1) (cpA neuron [2])	also measured
COC=O [methyl formate]		Activation (spikes s−1) (cpA neuron [2]): 59.3 spikes s−1
CCC(=O)OC [methyl propanoate]	75.0 spikes s^−1	
CC1CCCC1 [methylcyclopentane]		Activation (spikes s−1) (cpA neuron [2]): 16.3 spikes s−1
CSC [methylsulfanylmethane]		Activation (spikes s−1) (cpA neuron [2]): 99.3 spikes s−1
C=CC(CCCCC)OC(=O)CCC (stereo not shown) [oct-1-en-3-yl butanoate]	0.0 spikes s^−1	
CC(=O)OCC1CCCO1 (stereo not shown) [oxolan-2-ylmethyl acetate]	10.0 spikes s^−1	
CCCCCN [pentan-1-amine]		% Inhibition (CO2 receptor neuron [1]; [5]): 100%
CCCCCO [pentan-1-ol]	50.5 spikes s^−1	
O=C1CNCCN1 [piperazin-2-one]	−3.2 spikes s^−1	
O=C1CCCCN1 [piperidin-2-one]	0.0 spikes s^−1	
C=CCOC(=O)CCC [prop-2-enyl butanoate]	16.0 spikes s^−1	
C=CCOC(=O)CC [prop-2-enyl propanoate]	49.5 spikes s^−1	
CCCO [propan-1-ol]		Activation (spikes s−1) (cpA neuron [2]): 60.8 spikes s−1
CC(C)O [propan-2-ol]		Activation (spikes s−1) (cpA neuron [2]): 25.3 spikes s−1
CC(C)OC(=O)c1ccccc1 [propan-2-yl benzoate]	6.0 spikes s^−1	
CC(C)OC=O [propan-2-yl formate]		Activation (spikes s−1) (cpA neuron [2]): 63.8 spikes s−1
CCC=O [propanal]		Activation (spikes s−1) (cpA neuron [2]): −33.8 spikes s−1
CCCS [propane-1-thiol]	75.0 spikes s^−1	
CCCOC(C)=O [propyl acetate]	52.6 spikes s^−1	
CCCOC=O [propyl formate]	58.0 spikes s^−1	
c1ccnnc1 [pyridazine]	2.5 spikes s^−1	
O=C1CCCN1 [pyrrolidin-2-one]	0.0 spikes s^−1	
NCCCCNCCCN [spermidine]		Average % Inhibition (CO2 receptor neuron [1]; 0.001% in paraffin oil): −1.0%; Average % Inhibition (CO2 receptor neuron [1]; 0.01% in paraffin oil): 10.6%; Average % Inhibition (CO2 receptor neuron [1]; 0.1% in paraffin oil): 85.1%; Average % Inhibition (CO2 receptor neuron [1]; 1% in paraffin oil): 92.2%; Average % Inhibition (CO2 receptor neuron [1]; 10% in paraffin oil): 91.3%; Ave. Activity (CO2 receptor neuron [4]; 0.001% in paraffin oil): 62.3; Ave. Activity (CO2 receptor neuron [4]; 0.01% in paraffin oil): 55.3; Ave. Activity (CO2 receptor neuron [4]; 0.1% in paraffin oil): 10.0; Ave. Activity (CO2 receptor neuron [4]; 1% in paraffin oil): 5.3; Ave. Activity (CO2 receptor neuron [4]; 10% in paraffin oil): 6.0
NCCCNCCCCNCCCN [spermine]		Average % Inhibition (CO2 receptor neuron [1]; 0.001% in paraffin oil): −5.6%; Average % Inhibition (CO2 receptor neuron [1]; 0.01% in paraffin oil): −3.2%; Average % Inhibition (CO2 receptor neuron [1]; 0.1% in paraffin oil): 76.5%; Average % Inhibition (CO2 receptor neuron [1]; 1% in paraffin oil): 94.8%; Average % Inhibition (CO2 receptor neuron [1]; 10% in paraffin oil): 95.1%; Ave. Activity (CO2 receptor neuron [4]; 0.001% in paraffin oil): 52.0; Ave. Activity (CO2 receptor neuron [4]; 0.01% in paraffin oil): 52.3; Ave. Activity (CO2 receptor neuron [4]; 0.1% in paraffin oil): 14.0; Ave. Activity (CO2 receptor neuron [4]; 1% in paraffin oil): 2.7; Ave. Activity (CO2 receptor neuron [4]; 10% in paraffin oil): 2.3
Sc1cccs1 [thiophene-2-thiol]		Activation (spikes s−1) (cpA neuron [2]): −35.5 spikes s−1
